The values that follow come from ChEMBL document CHEMBL1909046, “DrugMatrix in vitro pharmacology data”.

The first test has as its target T1, Alpha-1A adrenergic receptor (Rattus norvegicus, UniProt P43140).
T1 sequence (P43140 whole entry): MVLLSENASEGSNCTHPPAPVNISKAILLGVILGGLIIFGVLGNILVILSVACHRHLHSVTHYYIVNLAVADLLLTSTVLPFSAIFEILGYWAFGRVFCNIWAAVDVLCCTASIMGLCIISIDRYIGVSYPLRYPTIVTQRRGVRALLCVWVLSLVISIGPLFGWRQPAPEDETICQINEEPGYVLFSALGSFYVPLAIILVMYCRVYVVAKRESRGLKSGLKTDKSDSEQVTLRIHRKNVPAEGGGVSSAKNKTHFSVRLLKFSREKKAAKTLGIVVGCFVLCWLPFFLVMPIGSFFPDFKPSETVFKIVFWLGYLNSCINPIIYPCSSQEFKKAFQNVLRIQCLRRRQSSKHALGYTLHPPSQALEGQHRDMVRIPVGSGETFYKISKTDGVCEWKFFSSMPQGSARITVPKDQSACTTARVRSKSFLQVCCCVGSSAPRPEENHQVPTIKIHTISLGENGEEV
The experiment in a line: DRUGMATRIX: Alpha-1A adrenergic receptor radioligand binding (ligand: prazosin). Particulars: Not Active = under 50% inhibition at 10 µM. The format is cell membranes, Wistar, Submaxillary gland, Membrane.
As for `COc1cc(N)nc2[nH]c(-c3ccc(F)cc3)c(-c3ccncc3)c12`, the IC50 result was “Not Active”.

Consider `CNS(=O)(=O)Cc1ccc2[nH]cc(CCN(C)C)c2c1`, for which the IC50 entry is on record as “Not Active”.

As for `CCCc1nn(C)c2c(=O)[nH]c(-c3cc(S(=O)(=O)N4CCN(C)CC4)ccc3OCC)nc12`, the IC50 entry is “Not Active”.

Consider `COc1ccc(/C=C/C(=O)Nc2ccccc2C(=O)O)cc1OC`, for which the IC50 entry is recorded as “Not Active”.

For `CCOC(N)=O`, the IC50 entry was “Not Active”.

For the compound `CC(=O)Nc1nnc(S(N)(=O)=O)s1` [ACETAZOLAMIDE], the IC50 entry is “Not Active”.

As to `CC1=C(CC(=O)O)c2cc(F)ccc2/C1=C\c1ccc(S(C)(=O)=O)cc1` [EXISULIND], the IC50 result is listed as “Not Active”.

As for `CC(C)OC(=O)C(C)(C)Oc1ccc(C(=O)c2ccc(Cl)cc2)cc1` [FENOFIBRATE], the IC50 result was “Not Active”.

`CN1C2CCCC1CC(NC(=O)c1nn(C)c3ccccc13)C2` (configuration not stated) [GRANISETRON]: the IC50 entry is “Not Active”.

System in another test: not listed separately
The experiment in a line: DRUGMATRIX: Phosphodiesterase PDE3 enzyme inhibition (substrate: [3H]cAMP + cAMP). The format is tissue-based, Homo sapiens. Conditions: platelet; Not Active = under 50% inhibition at 10 µM.
Regarding `COc1cc(N)nc2[nH]c(-c3ccc(F)cc3)c(-c3ccncc3)c12`, the IC50 result is “Not Active” and the Ki entry was “Not Active”.

Turning to `CNS(=O)(=O)Cc1ccc2[nH]cc(CCN(C)C)c2c1`, the IC50 result is recorded as “Not Active” and the Ki result is given as “Not Active”.

With `CCCc1nn(C)c2c(=O)[nH]c(-c3cc(S(=O)(=O)N4CCN(C)CC4)ccc3OCC)nc12`, the IC50 result is “Not Active” and the Ki result is recorded as “Not Active”.

For `COc1ccc(/C=C/C(=O)Nc2ccccc2C(=O)O)cc1OC`, the IC50 result is reported as “Not Active” and the Ki result is listed as “Not Active”.

Turning to `CCOC(N)=O`, the IC50 result is given as “Not Active” and the Ki result is on record as “Not Active”.

As for `CC1=C(CC(=O)O)c2cc(F)ccc2/C1=C\c1ccc(S(C)(=O)=O)cc1` [EXISULIND], the IC50 result is “Not Active” and the Ki result is “Not Active”.

The target in a further test is Substance-P receptor (Homo sapiens, UniProt P25103). The format is cell membranes, Membrane. Conditions: cho. Note: in other assays of this panel Not Active means under 50% inhibition at 10 µM.
Chain of Substance-P receptor (P25103 whole entry): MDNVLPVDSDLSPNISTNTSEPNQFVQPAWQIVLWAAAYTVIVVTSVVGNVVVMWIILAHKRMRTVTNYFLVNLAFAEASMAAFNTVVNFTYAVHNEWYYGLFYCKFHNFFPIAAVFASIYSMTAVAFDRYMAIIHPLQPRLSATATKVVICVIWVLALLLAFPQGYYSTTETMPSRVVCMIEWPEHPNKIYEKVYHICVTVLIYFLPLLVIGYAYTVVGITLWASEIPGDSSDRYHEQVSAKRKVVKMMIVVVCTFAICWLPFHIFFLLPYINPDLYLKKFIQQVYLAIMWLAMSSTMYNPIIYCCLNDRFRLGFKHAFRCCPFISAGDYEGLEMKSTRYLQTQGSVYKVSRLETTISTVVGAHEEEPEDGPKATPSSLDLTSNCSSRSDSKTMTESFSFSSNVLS
With `COc1cc(N)nc2[nH]c(-c3ccc(F)cc3)c(-c3ccncc3)c12`, the IC50 entry is “Not Active”.

Regarding `CNS(=O)(=O)Cc1ccc2[nH]cc(CCN(C)C)c2c1`, the IC50 entry is reported as “Not Active”.

For the compound `CCCc1nn(C)c2c(=O)[nH]c(-c3cc(S(=O)(=O)N4CCN(C)CC4)ccc3OCC)nc12`, the IC50 entry is “Not Active”.

Take `COc1ccc(/C=C/C(=O)Nc2ccccc2C(=O)O)cc1OC`: the IC50 entry is on record as “Not Active”.

In the case of `CCOC(N)=O`, the IC50 entry was “Not Active”.

Regarding `CC(=O)Nc1nnc(S(N)(=O)=O)s1` [ACETAZOLAMIDE], the IC50 entry is reported as “Not Active”.

Take `CC1=C(CC(=O)O)c2cc(F)ccc2/C1=C\c1ccc(S(C)(=O)=O)cc1` [EXISULIND]: the IC50 result was “Not Active”.

`CC(C)OC(=O)C(C)(C)Oc1ccc(C(=O)c2ccc(Cl)cc2)cc1` [FENOFIBRATE]: the IC50 result is given as “Not Active”.

Turning to `CN1C2CCCC1CC(NC(=O)c1nn(C)c3ccccc13)C2` (configuration not stated) [GRANISETRON], the IC50 entry was “Not Active”.

In a further test the target is T2, Calcitonin receptor (Homo sapiens, UniProt P30988). Note: in other assays of this panel Not Active means under 50% inhibition at 10 µM.
T2 sequence (P30988 whole entry): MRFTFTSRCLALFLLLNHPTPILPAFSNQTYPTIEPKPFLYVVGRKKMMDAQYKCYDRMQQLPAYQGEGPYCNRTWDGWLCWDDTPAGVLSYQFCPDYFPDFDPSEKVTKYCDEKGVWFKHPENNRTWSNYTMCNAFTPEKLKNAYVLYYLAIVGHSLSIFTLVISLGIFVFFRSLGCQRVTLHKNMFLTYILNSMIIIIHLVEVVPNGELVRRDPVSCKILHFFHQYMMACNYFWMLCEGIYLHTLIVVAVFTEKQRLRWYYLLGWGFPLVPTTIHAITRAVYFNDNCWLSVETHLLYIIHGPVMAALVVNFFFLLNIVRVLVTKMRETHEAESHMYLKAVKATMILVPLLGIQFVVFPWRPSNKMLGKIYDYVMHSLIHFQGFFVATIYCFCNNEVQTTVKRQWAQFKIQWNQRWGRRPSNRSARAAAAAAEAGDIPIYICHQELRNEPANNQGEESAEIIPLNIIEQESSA
The format is cell membranes, Membrane. Conditions: t47d.
`COc1cc(N)nc2[nH]c(-c3ccc(F)cc3)c(-c3ccncc3)c12`: the IC50 entry was “Not Active”.

For the compound `CNS(=O)(=O)Cc1ccc2[nH]cc(CCN(C)C)c2c1`, the IC50 entry was “Not Active”.

`CCCc1nn(C)c2c(=O)[nH]c(-c3cc(S(=O)(=O)N4CCN(C)CC4)ccc3OCC)nc12`: the IC50 result is reported as “Not Active”.

As to `COc1ccc(/C=C/C(=O)Nc2ccccc2C(=O)O)cc1OC`, the IC50 result is listed as “Not Active”.

Regarding `CCOC(N)=O`, the IC50 result is “Not Active”.

As for `CC(=O)Nc1nnc(S(N)(=O)=O)s1` [ACETAZOLAMIDE], the IC50 result is recorded as “Not Active”.

With `CC1=C(CC(=O)O)c2cc(F)ccc2/C1=C\c1ccc(S(C)(=O)=O)cc1` [EXISULIND], the IC50 result is reported as “Not Active”.

Take `CC(C)OC(=O)C(C)(C)Oc1ccc(C(=O)c2ccc(Cl)cc2)cc1` [FENOFIBRATE]: the IC50 entry is on record as “Not Active”.

In the case of `CN1C2CCCC1CC(NC(=O)c1nn(C)c3ccccc13)C2` (configuration not stated) [GRANISETRON], the IC50 result is “Not Active”.

Another test addresses T3, Neutrophil elastase (Homo sapiens, UniProt P08246).
T3 sequence (P08246 whole entry): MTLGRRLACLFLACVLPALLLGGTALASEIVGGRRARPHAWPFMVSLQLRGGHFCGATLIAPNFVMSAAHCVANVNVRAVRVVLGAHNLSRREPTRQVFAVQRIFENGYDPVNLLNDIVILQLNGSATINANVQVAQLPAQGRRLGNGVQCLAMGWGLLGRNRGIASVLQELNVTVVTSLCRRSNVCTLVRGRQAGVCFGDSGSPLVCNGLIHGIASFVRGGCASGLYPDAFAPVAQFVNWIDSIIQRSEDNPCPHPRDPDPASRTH
It is filed as tissue-based.
Settings: not given
In the case of `COc1cc(N)nc2[nH]c(-c3ccc(F)cc3)c(-c3ccncc3)c12`, the IC50 result is on record as “Not Active”.

As to `CNS(=O)(=O)Cc1ccc2[nH]cc(CCN(C)C)c2c1`, the IC50 entry is listed as “Not Active”.

Turning to `CCCc1nn(C)c2c(=O)[nH]c(-c3cc(S(=O)(=O)N4CCN(C)CC4)ccc3OCC)nc12`, the IC50 result is given as “Not Active”.

As for `COc1ccc(/C=C/C(=O)Nc2ccccc2C(=O)O)cc1OC`, the IC50 result is given as “Not Active”.

As to `CCOC(N)=O`, the IC50 entry is “Not Active”.

Turning to `CC(=O)Nc1nnc(S(N)(=O)=O)s1` [ACETAZOLAMIDE], the IC50 entry was “Not Active”.

For the compound `CC1=C(CC(=O)O)c2cc(F)ccc2/C1=C\c1ccc(S(C)(=O)=O)cc1` [EXISULIND], the IC50 entry is on record as “Not Active”.

For the compound `CC(C)OC(=O)C(C)(C)Oc1ccc(C(=O)c2ccc(Cl)cc2)cc1` [FENOFIBRATE], the IC50 result is given as “Not Active”.

Regarding `CN1C2CCCC1CC(NC(=O)c1nn(C)c3ccccc13)C2` (configuration not stated) [GRANISETRON], the IC50 entry is on record as “Not Active”.

The target in a further test is T4, Angiotensin-converting enzyme (Oryctolagus cuniculus, UniProt P12822).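 Note: enzymatic inhibition of angiotensin-converting enzyme measured with FAPGG as the substrate; in other assays of this panel Not Active means under 50% inhibition at 10 µM.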
T4 sequence (P12822 whole entry): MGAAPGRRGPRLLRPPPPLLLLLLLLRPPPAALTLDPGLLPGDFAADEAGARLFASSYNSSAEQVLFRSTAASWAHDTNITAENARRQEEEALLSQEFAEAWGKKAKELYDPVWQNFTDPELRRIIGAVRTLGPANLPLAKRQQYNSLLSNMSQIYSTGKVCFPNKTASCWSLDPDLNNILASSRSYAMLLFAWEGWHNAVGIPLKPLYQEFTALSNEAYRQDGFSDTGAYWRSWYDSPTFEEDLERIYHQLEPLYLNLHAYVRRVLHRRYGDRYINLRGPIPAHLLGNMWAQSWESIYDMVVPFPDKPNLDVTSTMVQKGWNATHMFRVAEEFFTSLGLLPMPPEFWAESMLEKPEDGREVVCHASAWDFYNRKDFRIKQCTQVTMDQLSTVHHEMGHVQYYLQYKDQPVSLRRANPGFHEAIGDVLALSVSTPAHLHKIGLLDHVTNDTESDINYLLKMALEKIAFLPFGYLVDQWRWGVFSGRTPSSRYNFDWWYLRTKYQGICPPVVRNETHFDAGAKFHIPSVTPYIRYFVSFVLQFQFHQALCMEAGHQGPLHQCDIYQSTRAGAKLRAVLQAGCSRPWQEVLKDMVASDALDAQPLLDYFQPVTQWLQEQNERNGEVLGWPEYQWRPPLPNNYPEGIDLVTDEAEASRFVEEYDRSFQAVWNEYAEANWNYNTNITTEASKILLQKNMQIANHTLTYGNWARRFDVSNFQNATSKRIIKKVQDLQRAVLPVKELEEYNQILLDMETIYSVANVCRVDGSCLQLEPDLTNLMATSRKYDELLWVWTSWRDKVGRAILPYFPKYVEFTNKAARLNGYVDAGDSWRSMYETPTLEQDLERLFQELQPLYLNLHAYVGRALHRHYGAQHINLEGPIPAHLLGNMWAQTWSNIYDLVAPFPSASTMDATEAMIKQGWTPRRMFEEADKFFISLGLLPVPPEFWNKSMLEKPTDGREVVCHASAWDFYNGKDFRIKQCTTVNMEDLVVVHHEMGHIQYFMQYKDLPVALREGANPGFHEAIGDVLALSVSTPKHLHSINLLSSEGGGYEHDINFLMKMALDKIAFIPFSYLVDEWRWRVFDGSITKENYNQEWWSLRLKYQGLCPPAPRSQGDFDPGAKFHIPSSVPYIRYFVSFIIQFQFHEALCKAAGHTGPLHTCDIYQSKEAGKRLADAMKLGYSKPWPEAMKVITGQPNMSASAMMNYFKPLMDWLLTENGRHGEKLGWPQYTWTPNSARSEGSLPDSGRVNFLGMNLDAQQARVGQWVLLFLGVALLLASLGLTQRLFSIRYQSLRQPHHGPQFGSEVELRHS
The format is tissue-based, Lung.
Settings: not given
For the compound `COc1cc(N)nc2[nH]c(-c3ccc(F)cc3)c(-c3ccncc3)c12`, the IC50 result was “Not Active”.

As to `CNS(=O)(=O)Cc1ccc2[nH]cc(CCN(C)C)c2c1`, the IC50 result is “Not Active”.

In the case of `CCCc1nn(C)c2c(=O)[nH]c(-c3cc(S(=O)(=O)N4CCN(C)CC4)ccc3OCC)nc12`, the IC50 entry is “Not Active”.

For the compound `COc1ccc(/C=C/C(=O)Nc2ccccc2C(=O)O)cc1OC`, the IC50 entry was “Not Active”.

Take `CCOC(N)=O`: the IC50 entry is reported as “Not Active”.

Turning to `CC(=O)Nc1nnc(S(N)(=O)=O)s1` [ACETAZOLAMIDE], the IC50 entry is recorded as “Not Active”.

Turning to `CC1=C(CC(=O)O)c2cc(F)ccc2/C1=C\c1ccc(S(C)(=O)=O)cc1` [EXISULIND], the IC50 result is listed as “Not Active”.

In the case of `CC(C)OC(=O)C(C)(C)Oc1ccc(C(=O)c2ccc(Cl)cc2)cc1` [FENOFIBRATE], the IC50 entry was “Not Active”.

On to `CN1C2CCCC1CC(NC(=O)c1nn(C)c3ccccc13)C2` (configuration not stated) [GRANISETRON], for which the IC50 entry is reported as “Not Active”.
